How the values were obtained:
[1] = clinical pathology (serum clinical chemistry) in mice; type: in vivo; settings: CD-1 mice, 20 mg/kg intravenously daily for 9 days, sera day 10
Procedure: 20-day-old CD-1 mice were divided into a vehicle control group (5 mice) and a treatment group (5 mice). Samples of glycopeptide antibiotics were administered at 20 mg/kg intravenously daily for 9 days.

[2] = anatomic pathology (histopathology of heart and kidney) in mice; type: in vivo; settings: CD-1 mice, 20 mg/kg intravenously daily for 9 days, necropsy day 10, microscopic histopathology
Procedure: Samples of tissues from necropsied mice were formalin-fixed, paraffin-embedded, sectioned, stained with hematoxylin and eosin, and examined microscopically. Histopathologic findings were recorded. These findings were subjectively graded on a scale corresponding to slight, mild, moderate, marked and severe as compared to untreated controls.

[3] = tested on: Escherichia coli; assay: in vitro antibacterial evaluation, MIC by broth dilution; type: cell-based; settings: 18 hours at 35° C.
[4] = tested on: Staphylococcus aureus-SMITH (GC 4543); assay: acute lethal infection in mice; type: in vivo; settings: acute lethal infection, female CD-1 mice, intraperitoneal challenge, intravenous 30 min. after infection, 7 day survival
How it was run: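 Survival at 7 days, pooled from three independent tests, yields ED50 values. Treatment is intravenous, 30 min after ip infection of female CD-1 mice, using an inoculum lethal to untreated controls within 24-48 hr.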

[5] = tested on: Staphylococcus sp.; assay: in vitro antibacterial evaluation, MIC by broth dilution; type: cell-based; settings: broth dilution, 18 hours at 35° C.
How it was run: (§1)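 Broth dilution per NCCLS standard M7-A2 in Muller-Hinton II […], with an inoculum of 5×10^5 CFU/mL and antibiotic spanning 64-0.06 μg/mL. The MIC is the lowest concentration that inhibits growth of the organism.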

[6] = tested on: Streptococcus sp.; assay: as above; type: cell-based; settings: broth dilution, 18 hours at 35° C.
How it was run: as §1

[7] = tested on: Enterococcus sp.; assay: as above; type: cell-based; settings: broth dilution, 18 hours at 35° C.
How it was run: as §1

COc1ccc2cc(COC3C(CO)OC(OC4C(CO)OC(Oc5ccc(CC6NC(=O)C(C(C)c7ccccc7)NC(=O)CNC(=O)C(CO)NC(=O)C(CC7CNC(=N)N7C7OC(CO)C(O)C(O)C7O)NC(=O)C(CC7CNC(=N)N7)NC6=O)cc5)C(O)C4O)C(O)C3O)ccc2c1 (stereo not drawn) [Example 245a, Cyclo[3-(2-iminoimidazolidin-4-yl)alanyl-3-(3-hexopyranosyl-2-iminoimidazolidin-4-yl)-alanylserylglycyl-β-methylphenylalanyl-O-[4-O-[4-O-[(6-methoxy-2-naphthyl)methyl]-hexopyranosyl]hexopyranosyl]tyrosyl]]
+133%: Clinical Chemistry (Day 10) % of Control, Creatinine [1]
+212%: Clinical Chemistry (Day 10) % of Control, BUN [1]
+++: Anatomical Pathology (Day 10), Kidney [2]
8 µg/mL: MIC Enterococcus faecalis (ATCC 29212) [7] | MIC Enterococcus faecalis (GC 2691) [7] | MIC Enterococcus faecalis (GC 4552) [7] | MIC Enterococcus faecalis (GC 4554) [7] | MIC Enterococcus faecalis (GC 6189) [7] | MIC Enterococcus faecalis (ATCC 29212) ([7]; strain ATCC 29212) | MIC Enterococcus faecalis (GC 4552) ([7]; strain GC 4552) | MIC Enterococcus faecalis (GC 4554) ([7]; strain GC 4554) | MIC Enterococcus faecalis (GC 6189) ([7]; strain GC 6189) | MIC Enterococcus faecalis (GC 2691) ([7]; inoculum 5×10^5 CFU/mL, strain GC 2691)
1 µg/mL: MIC Coagulase Negative Staphylococcus (GC 4548) [5] | MIC Coagulase Negative Staphylococcus (GC 6257) [5] | MIC Staphylococcus haemolyticus (GC 4546) [5] | MIC Staphylococcus haemolyticus (GC 4546) ([5]; strain GC 4546) | MIC Coagulase Negative Staphylococcus (GC 4548) ([5]; strain GC 4548) | MIC Coagulase Negative Staphylococcus (GC 6257) ([5]; strain GC 6257) | MIC Streptococcus agalactiae (GC 4564) [6] | MIC Streptococcus pneumoniae (GC 4565) [6] | MIC Streptococcus pyogenes (GC 4563) [6] | MIC Streptococcus pyogenes (GC 4563) ([6]; inoculum 5×10^5 CFU/mL, strain GC 4563) | MIC Streptococcus agalactiae (GC 4564) ([6]; inoculum 5×10^5 CFU/mL, strain GC 4564) | MIC Streptococcus pneumoniae (GC 4565) ([6]; inoculum 5×10^5 CFU/mL, strain GC 4565)
0.5 µg/mL: MIC Coagulase Negative Staphylococcus (GC 4549) [5] | MIC Coagulase Negative Staphylococcus (GC 4549) ([5]; strain GC 4549) | MIC Streptococcus pneumoniae (ATCC 6301) [6] | MIC Streptococcus pneumoniae (ATCC 6301) ([6]; inoculum 5×10^5 CFU/mL, strain ATCC 6301)
4 µg/mL: MIC Staphylococcus aureus (GC 1131) [5] | MIC Staphylococcus aureus (GC 1131) ([5]; strain GC 1131) | MIC Enterococcus avium (GC 4558) [7] | MIC Enterococcus faecalis (GC 2242) [7] | MIC Enterococcus faecalis (GC 3059) [7] | MIC Enterococcus faecalis (GC 4553) [7] | MIC Enterococcus faecium (GC 2243) [7] | MIC Enterococcus faecium (GC 4556) [7] | MIC Enterococcus faecium (GC 2243) ([7]; strain GC 2243) | MIC Enterococcus faecalis (GC 4553) ([7]; strain GC 4553) | MIC Enterococcus faecium (GC 4556) ([7]; strain GC 4556) | MIC Enterococcus avium (GC 4558) ([7]; strain GC 4558) | MIC Enterococcus faecalis (GC 2242) ([7]; inoculum 5×10^5 CFU/mL, strain GC 2242) | MIC Enterococcus faecalis (GC 3059) ([7]; inoculum 5×10^5 CFU/mL, strain GC 3059)
+: Anatomical Pathology (Day 10), Heart [2]
2 µg/mL: MIC Escherichia coli (GC 4560) [3] | MIC Coagulase Negative Staphylococcus (GC 4547) [5] | MIC Coagulase Negative Staphylococcus (GC 4551) [5] | MIC Staphylococcus aureus (ATCC 29213) [5] | MIC Staphylococcus aureus (GC 3051) [5] | MIC Staphylococcus aureus (GC 3053) [5] | MIC Staphylococcus aureus (GC 4541) [5] | MIC Staphylococcus aureus (GC 4542) [5] | MIC Staphylococcus aureus (GC 4544) [5] | MIC Staphylococcus aureus (GC 4545) [5] | MIC Staphylococcus aureus-SMITH (GC 4543) [5] | MIC Staphylococcus aureus (ATCC 29213) ([5]; strain ATCC 29213) | MIC Staphylococcus aureus (GC 3051) ([5]; strain GC 3051) | MIC Staphylococcus aureus (GC 3053) ([5]; strain GC 3053) | MIC Staphylococcus aureus (GC 4541) ([5]; strain GC 4541) | MIC Staphylococcus aureus (GC 4542) ([5]; strain GC 4542) | MIC Staphylococcus aureus-SMITH (GC 4543) ([5]; strain GC 4543) | MIC Staphylococcus aureus (GC 4544) ([5]; strain GC 4544) | MIC Staphylococcus aureus (GC 4545) ([5]; strain GC 4545) | MIC Coagulase Negative Staphylococcus (GC 4547) ([5]; strain GC 4547) | MIC Coagulase Negative Staphylococcus (GC 4551) ([5]; strain GC 4551) | MIC Enterococcus faecium (GC 4557) [7] | MIC Enterococcus faecium (GC 4557) ([7]; strain GC 4557)
<0.12 µg/mL: MIC Streptococcus pneumoniae (GC 1894) [6] | MIC Streptococcus pneumoniae (GC 1894) ([6]; inoculum 5×10^5 CFU/mL, strain GC 1894)
32 µg/mL: MIC Escherichia coli (ATCC 25922) [3] | MIC Escherichia coli (GC 4559) [3]
1 mg/kg: median effective dose (ED50), Staphylococcus aureus-SMITH (GC 4543) [4]

From patent publication US6914045B2, “Glycopeptide antibiotics” (Wyeth Holdings Corporation, priority 2001, dated 2005)
